# Experimental data from US20240108734A1, “METHODS FOR TREATING AND AMELIORATING CANCER” (The Regents of the University of California, priority 2021, published 2024).
# “Also recorded” adds a separate entry of the source.
# Legend:
# MF CD34+ cells (pre-LSC) = test: SL/M2 stromal co-culture, clonogenic survival and self-renewal (replating) assays, myelofibrosis; assay type: cell-based, human; conditions: imetelstat only (5 uM in b222), compared with normal bone marrow; for self-renewal capacity (replating) of MF CD34+ cells (pre-LSC): p<0.001; for survival of MF CD34+ cells (pre-LSC): p<0.01
# From the text: Lentiviral human wild-type and mutant ADAR1^E912A (pCDH-EF1-T2A-copGFP) and shRNA targeting ADAR1 were produced according to published protocols^27,37. In Vitro MPN-SPC and LSC Survival and Self-Renewal Assays with Imetelstat To assess MPN progenitor and LSC survival and self-renewal in vitro, human primary CD34^+ cells selected from BC CML (n=5), MF (n=9) or age matched normal bone marrow (a-NBM, n=4) were co-cultured with SL/M2 stromal cells for 7-14 days, and then treated with imetelstat alone or combined with dasatinib for BC CML or Pacritinib for MF. Colony forming and replating assays were performed as previously described^32.
# To assess MPN progenitor and LSC survival and self-renewal in vitro, human primary CD34^+ cells selected from BC CML (n=5), MF (n=9) or age matched normal bone marrow (a-NBM, n=4) were co-cultured with SL/M2 stromal cells for 7-14 days, and then treated with Imetelstat alone or combined with dasatinib for BC CML or Pacritinib for MF. Colony forming and replating assays were performed as previously described^32,33.
# FIG. 3A. A schematic illustration of SL/M2 stromal co-cultures established to quantify in vitro MPN-SPC and LSC survival and self-renewal. Human primary CD34^+ cells selected from BC CML (n=5), MF (n=9) or age matched normal bone marrow (a-NBM, n=4) were co-cultured with SL/M2 stromal cells for 7-14 days. While BC CML stromal co-cultures were treated with increasing doses of imetelstat with or without dasatinib, MF stromal co-cultures were treated with imetelast with or without pacritinib.
# FIG. 3D. Imetelstat was used at concentrations ranging from 1 to 10 μM to treat aged normal bone marrow (aNBM, n=4, dark blue) compared with myelofibrosis (MF, light blue, n=9) in stromal co-cultures followed by clonogenic survival (upper panel) and self-renewal (lower panel) assays (**p<0.01, ***p<0.001).
# FIG. 3E. Imetelstat was used at concentrations ranging from 1 to 10 μM alone or in combination with pacritinib (5 nM) to treat aged normal bone marrow (a-NBM, n=4, blue) compared with MF (green, n=9) in stromal co-cultures followed by clonogenic survival (upper panel) and self-renewal (lower panel) assays.
# beta-catenin = test: FACS analysis of beta-catenin in normal HSC engrafted mouse model; assay type: in vivo; conditions: human CD45+ cells and CD34+CD38- stem cells in BM
# Description: To assess WNT/beta-catenin activation in response to ADAR1 upregulation, a lentiviral TCF/LEF reporter was utilized in human blast crisis CML cells, K562^26. Lentiviral pCDH backbone, ADAR1^WT, shControl, and shADAR1 K562 stable cell lines were transduced with pGreenFire1-TCF/LEF1 reporter (SBI) lentivirus for 72-hours prior to CellTiter-Glo and One-Glo luciferase assays (Promega). A minimum of 50,000 cells were plated in duplicate, lysed according to the manufacturer's protocol, and measured using preloaded protocols on a Promega GloMax Discover Microplate Reader. One-Glo luciferase readouts were normalized to corresponding CellTiter-Glo values. Activated beta-catenin levels in HSC and HPCs were also quantified using a MACS Quant instrument following staining of cells with Viability Near-IR, Lineage PE-Cy5, CD45 BV510, CD34 BV421, CD38 PE-Cy7, GFP, and beta-catenin AF647 antibodies (Becton Dickinson, Inc). […] Mean fluorescence intensity (MF) of active beta-catenin in human CD45+ cells, HSCs (CD45^+CD34^+CD38^− Lin) and HPCs (CD45^+CD34^+CD38^+Lin^−) derived from engrafted bone marrow and spleen was determined with a Miltenyi Biotec MACS Quant flow cytometer.
substance,measurement,setting,value
imetelstat,self-renewal capacity (replating) of MF CD34+ cells (pre-LSC),MF CD34+ cells (pre-LSC),decrease
same,self-renewal capacity (replating) of MF CD34+ cells (pre-LSC),MF CD34+ cells (pre-LSC); listed as Imetelstat,significantly inhibited
same,survival of MF CD34+ cells (pre-LSC),MF CD34+ cells (pre-LSC),decrease
same,survival of MF CD34+ cells (pre-LSC),MF CD34+ cells (pre-LSC); listed as Imetelstat,significantly inhibited
same,beta-catenin expression / activity in normal HSC engrafted mice,beta-catenin,no significant decrease; also recorded: does not reduce; also recorded: no significant difference
